Laboratory results published in patent US7063946B2, “Methods, reagents, kits and apparatus for protein function analysis” (Meso Scale Technologies, LLC., priority 2001, dated 2006).

Tests used:
Test in all cases: Kinase inhibitor profiling, pEY phosphorylation
Type in all cases: biochemical
EphB4 = molecular target: T1, EphB4 (Mus musculus, UniProt P54761)
T1 construct: specificity data for proteins generated from a library of eighteen full-length clones; host or cells: rabbit reticulocyte lysate, TnT coupled in vitro transcription/translation (cell-free)
T1 sequence (P54761 16-987): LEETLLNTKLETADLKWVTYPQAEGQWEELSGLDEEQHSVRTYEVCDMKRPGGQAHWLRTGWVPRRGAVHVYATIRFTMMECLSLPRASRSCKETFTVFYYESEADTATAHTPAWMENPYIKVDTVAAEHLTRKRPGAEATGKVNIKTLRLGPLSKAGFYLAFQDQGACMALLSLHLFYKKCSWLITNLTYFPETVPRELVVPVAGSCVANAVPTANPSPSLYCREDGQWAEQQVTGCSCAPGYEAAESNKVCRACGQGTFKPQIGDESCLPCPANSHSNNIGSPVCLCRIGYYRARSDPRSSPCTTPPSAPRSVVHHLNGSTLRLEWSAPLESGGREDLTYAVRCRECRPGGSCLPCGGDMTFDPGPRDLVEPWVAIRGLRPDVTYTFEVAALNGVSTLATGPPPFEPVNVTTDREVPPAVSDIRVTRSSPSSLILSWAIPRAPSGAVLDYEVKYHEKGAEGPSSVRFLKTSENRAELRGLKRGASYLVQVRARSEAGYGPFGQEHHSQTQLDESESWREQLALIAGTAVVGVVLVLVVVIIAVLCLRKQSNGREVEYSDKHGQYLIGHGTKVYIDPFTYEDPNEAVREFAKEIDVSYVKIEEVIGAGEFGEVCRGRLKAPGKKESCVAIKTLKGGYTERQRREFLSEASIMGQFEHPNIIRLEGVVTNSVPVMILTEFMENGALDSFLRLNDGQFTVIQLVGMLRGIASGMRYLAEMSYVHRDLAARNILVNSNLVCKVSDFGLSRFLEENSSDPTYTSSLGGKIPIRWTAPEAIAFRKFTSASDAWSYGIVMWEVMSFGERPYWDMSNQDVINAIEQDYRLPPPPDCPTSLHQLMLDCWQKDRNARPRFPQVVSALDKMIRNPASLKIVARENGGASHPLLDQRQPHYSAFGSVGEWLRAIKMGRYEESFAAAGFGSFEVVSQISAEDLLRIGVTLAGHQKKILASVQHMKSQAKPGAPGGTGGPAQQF
Experimental: (§1) Proteins were produced in an in vitro transcription and translation reaction. […] The unbound components of the reaction containing endogenous kinases were removed by three washes with TT-buffer (25 mM Tris-HCl buffer pH 7.4 and 0.004% Triton), two five minutes washings with high-salt wash buffer (25 mM Tris-HCl buffer pH 7.4, 0.004% Triton, 1M NaCl and 5 mM DTT) and 3 more washes with TT-buffer. To these immobilized and purified proteins a tyrosine kinase substrate, 5 nM pEY (poly Glu-Tyr, Sigma, MO), was added in a 50 μl reaction solution containing 5 mM MgCl2, 5 mM MnCl2, 100 μM ATP, 25 mM Tris-HCl buffer pH 7.4, 0.05 mM Na3VO4, 0.004% TritonX-100, 2 mM DTT and EDTA-free protease inhibitor (Roche Molecular Biochemicals). This mixture was incubated with shaking at room temperature overnight to allow phosphorylation of the pEY substrate by the immobilized kinases. Following this incubation, 45 μl of this mixture was transferred to a streptavidin or avidin-coated NPT IPR plate coated with biotinylated anti-phosphotyrosine antibody (PY20, Zymed labs, CA) followed by incubation for 30 minutes at room temperature to allow the binding of the phosphorylated pEY substrate to the PY20 coated NPT plate. Following this binding step, 50 ng Sulfo-TAG labeled anti-phosphotyrosine in buffer containing 25 mM Tris-HCl buffer pH 7.4, 5 mM MgCl2, 0.05 mM Na3VO4, 0.004% TritonX-100, 2 mM DTT and 0.05% IgG was added followed by incubation at room temperature for 30 mm. The unbound reagents were removed by one time washing with water, and the TAG label was detected in presence of 150 μl IPR assay buffer (0.4 mM Gly-Gly buffer, pH 7.8, 1 mM EDTA, 0.1 M TPA). The ECL signals were measured using an imaging plate reader.
(§2) Proteins were produced using 100 ng of plasmid DNA Mock (Luciferase, Promega) or tyrosine kinases (Fert2 IMAGE ID # 4485050, FGFR1 IMAGE ID # 4037899, Fgfr2 IMAGE ID # 2654352, Src IMAGE ID # 3156400, BMX IMAGE ID # 3919253, LCK IMAGE ID # 4191610, Epha7 IMAGE ID # 3991628, Ephb4 IMAGE ID # 4013934, Tek IMAGE ID # 3482498, HCK IMAGE ID # 4778819, BTK IMAGE ID # 4478463, CSK IMAGE ID # 4398416, SYK IMAGE ID # 3870426, FGR IMAGE ID # 4419973, PTK2B IMAGE ID # 4339456, FRK(IMAGE ID # 4515877, Kit IMAGE ID # 2644960, Fgfr-4 IMAGE ID # 4239139, NTRK3 IMAGE ID # 4181574, Kdr IMAGE ID # 4238984, Incyte Genomics, CA) and immobilized on SA or avidin coated NPT-IPR plates as described in previous examples. The unbound components of the translation reaction (including any endogenous kinases) were removed by 3 washes with TT-buffer (25 mM Tris-HCl buffer pH 7.4 and 0.004% Triton), two five minutes washes with high-salt wash buffer (25 mM Tris-HCl buffer pH 7.4, 0.004% Triton, 1M NaCl and 5 mM DTT) and 3 washes with TT-buffer. […] The mixture was incubated at room temperature for 10 mm before starting the kinase reaction by adding 25 μl of 200 μM ATP in buffer A. This mixture was incubated with intermittent shaking at room temperature for 2 hours to overnight to allow (a) phosphorylation of the pEY substrate and (b) autophosphorylation of the immobilized kinases. Autophosphorylation and phosphorylation of the pEY was measured as described in Examples 7 and 8.
(§3) The ECL signal in control wells produced by tyrosine kinases was compared to the wells containing inhibitor compounds. The signal produced from Mock was negligible.

Kit = molecular target: T2, Kit (Mus musculus, UniProt P05532)
T2 construct: specificity data for proteins generated from a library of eighteen full-length clones; biotin on random lysines (biotin-Lys-tRNA); host or cells: rabbit reticulocyte lysate, coupled transcription/translation (TnT, Promega)
Experimental: as §1, §2, §3

FGFR1 = molecular target: T3, FGFR1 (Homo sapiens, UniProt P11362)
T3 construct: specificity data for proteins generated from a library of eighteen full-length clones; host or cells: rabbit reticulocyte lysate, TnT coupled transcription/translation
Experimental: as §1, §2, §3

FGFR2 = molecular target: T4, FGFR2 (Mus musculus, UniProt P21803)
T4 construct: specificity data for proteins generated from a library of eighteen full-length clones; host or cells: rabbit reticulocyte lysate, TnT coupled in vitro transcription/translation (cell-free)
Experimental: as §1, §2, §3

Fgfr4 = molecular target: T5, Fgfr4 (Mus musculus, UniProt Q03142)
T5 construct: specificity data for proteins generated from a library of eighteen full-length clones; biotin on random lysines (biotin-Lys-tRNA); host or cells: rabbit reticulocyte lysate, coupled transcription/translation (TnT, Promega)
Experimental: as §1, §2, §3

T4 sequence (P21803 22-821): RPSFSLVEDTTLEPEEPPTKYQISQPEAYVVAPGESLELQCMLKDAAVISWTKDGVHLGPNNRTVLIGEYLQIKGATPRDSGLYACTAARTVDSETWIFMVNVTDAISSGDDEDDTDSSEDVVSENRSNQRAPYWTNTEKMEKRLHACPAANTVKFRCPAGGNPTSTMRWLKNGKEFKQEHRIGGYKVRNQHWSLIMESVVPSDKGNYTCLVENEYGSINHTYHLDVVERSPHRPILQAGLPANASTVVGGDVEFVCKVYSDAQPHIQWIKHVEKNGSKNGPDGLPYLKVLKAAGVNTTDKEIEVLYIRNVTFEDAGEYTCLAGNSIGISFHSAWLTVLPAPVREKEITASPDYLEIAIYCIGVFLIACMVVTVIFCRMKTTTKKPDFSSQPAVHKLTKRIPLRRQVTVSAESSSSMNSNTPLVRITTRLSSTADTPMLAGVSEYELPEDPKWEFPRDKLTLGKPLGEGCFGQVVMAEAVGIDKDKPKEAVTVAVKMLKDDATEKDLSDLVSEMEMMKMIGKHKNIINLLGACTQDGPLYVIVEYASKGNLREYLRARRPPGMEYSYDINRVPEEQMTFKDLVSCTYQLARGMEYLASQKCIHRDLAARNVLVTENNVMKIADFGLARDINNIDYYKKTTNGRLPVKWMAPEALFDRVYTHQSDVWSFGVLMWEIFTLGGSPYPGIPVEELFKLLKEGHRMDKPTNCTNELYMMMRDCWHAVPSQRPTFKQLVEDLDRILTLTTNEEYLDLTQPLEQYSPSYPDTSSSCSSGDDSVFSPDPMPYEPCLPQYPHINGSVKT
T3 sequence (P11362 22-822): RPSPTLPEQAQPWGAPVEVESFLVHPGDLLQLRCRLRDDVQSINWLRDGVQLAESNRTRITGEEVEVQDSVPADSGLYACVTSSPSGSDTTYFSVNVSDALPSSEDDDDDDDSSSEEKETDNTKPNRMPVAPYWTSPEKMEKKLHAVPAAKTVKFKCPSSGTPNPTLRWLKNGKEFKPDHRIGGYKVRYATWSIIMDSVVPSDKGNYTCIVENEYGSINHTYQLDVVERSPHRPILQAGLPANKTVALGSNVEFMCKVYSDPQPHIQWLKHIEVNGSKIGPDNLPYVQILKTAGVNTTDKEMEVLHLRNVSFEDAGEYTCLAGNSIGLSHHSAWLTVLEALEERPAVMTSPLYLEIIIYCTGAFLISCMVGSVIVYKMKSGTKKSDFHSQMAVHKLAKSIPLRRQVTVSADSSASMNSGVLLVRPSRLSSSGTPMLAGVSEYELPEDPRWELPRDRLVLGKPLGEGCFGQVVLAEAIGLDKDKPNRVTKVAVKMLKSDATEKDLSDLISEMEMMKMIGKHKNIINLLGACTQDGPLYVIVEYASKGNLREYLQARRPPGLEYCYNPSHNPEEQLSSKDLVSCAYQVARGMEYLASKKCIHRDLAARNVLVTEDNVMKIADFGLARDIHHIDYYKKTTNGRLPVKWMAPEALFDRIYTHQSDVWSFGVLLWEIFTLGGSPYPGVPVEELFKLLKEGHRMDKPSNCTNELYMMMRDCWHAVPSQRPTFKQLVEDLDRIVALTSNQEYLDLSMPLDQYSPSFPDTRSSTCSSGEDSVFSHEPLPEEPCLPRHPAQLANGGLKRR
T5 sequence (Q03142 17-799): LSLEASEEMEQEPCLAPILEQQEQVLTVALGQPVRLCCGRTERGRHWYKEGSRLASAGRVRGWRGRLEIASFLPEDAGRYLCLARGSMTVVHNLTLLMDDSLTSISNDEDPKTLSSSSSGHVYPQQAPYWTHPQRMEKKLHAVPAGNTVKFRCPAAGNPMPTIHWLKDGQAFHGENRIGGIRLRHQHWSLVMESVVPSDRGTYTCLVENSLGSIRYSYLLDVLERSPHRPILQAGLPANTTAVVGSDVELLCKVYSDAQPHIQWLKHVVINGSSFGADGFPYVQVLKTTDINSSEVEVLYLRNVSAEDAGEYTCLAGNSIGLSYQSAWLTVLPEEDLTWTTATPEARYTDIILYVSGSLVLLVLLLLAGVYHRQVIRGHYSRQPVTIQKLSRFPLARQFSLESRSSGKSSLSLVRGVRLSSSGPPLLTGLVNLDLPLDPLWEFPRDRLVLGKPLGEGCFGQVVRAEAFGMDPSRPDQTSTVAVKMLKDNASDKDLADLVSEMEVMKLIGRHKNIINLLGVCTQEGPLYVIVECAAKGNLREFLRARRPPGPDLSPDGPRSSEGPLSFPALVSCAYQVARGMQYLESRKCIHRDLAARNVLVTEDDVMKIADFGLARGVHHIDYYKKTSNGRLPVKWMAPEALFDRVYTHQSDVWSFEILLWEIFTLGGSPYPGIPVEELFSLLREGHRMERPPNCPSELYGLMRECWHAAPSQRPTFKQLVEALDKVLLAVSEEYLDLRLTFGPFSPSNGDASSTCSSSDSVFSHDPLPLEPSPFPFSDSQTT
T2 sequence (P05532 25-979): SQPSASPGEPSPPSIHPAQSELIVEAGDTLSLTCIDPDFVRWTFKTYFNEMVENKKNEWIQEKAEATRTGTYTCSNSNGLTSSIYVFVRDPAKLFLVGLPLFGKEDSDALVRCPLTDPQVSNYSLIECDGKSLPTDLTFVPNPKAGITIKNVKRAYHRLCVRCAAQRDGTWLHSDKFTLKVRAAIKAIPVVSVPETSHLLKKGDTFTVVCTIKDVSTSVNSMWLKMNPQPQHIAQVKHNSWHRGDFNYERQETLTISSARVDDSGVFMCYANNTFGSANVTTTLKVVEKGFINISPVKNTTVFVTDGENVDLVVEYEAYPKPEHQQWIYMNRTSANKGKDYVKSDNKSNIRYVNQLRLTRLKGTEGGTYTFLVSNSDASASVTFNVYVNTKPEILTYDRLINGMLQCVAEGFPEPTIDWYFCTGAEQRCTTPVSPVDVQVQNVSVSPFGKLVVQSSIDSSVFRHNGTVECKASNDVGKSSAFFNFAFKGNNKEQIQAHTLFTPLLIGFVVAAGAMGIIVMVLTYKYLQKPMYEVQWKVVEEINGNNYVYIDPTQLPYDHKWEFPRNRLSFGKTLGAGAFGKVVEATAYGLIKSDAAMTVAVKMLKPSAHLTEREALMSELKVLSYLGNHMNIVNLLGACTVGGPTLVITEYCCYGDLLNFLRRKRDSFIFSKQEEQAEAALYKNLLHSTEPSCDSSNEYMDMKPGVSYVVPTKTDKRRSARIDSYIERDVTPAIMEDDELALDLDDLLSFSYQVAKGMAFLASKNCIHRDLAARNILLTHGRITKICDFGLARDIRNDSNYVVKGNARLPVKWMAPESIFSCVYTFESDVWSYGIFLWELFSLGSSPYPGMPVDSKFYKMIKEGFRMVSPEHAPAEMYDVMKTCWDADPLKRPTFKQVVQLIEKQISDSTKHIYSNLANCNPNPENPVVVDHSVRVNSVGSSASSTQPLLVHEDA

Compound	Inhibition specificity towards pEY phosphorylation at 10X IC50, EphB4 (EphB4)	Inhibition specificity towards pEY phosphorylation at 10X IC50, Kit (Kit)	Inhibition specificity towards pEY phosphorylation at 10X IC50, FGFR1 (FGFR1)	Inhibition specificity towards pEY phosphorylation at 10X IC50, FGFR2 (FGFR2)	Inhibition specificity towards pEY phosphorylation at 10X IC50, Fgfr4 (Fgfr4)
COc1cc2ncnc(Nc3ccc(O)cc3)c2cc1OC [WHI-P131]	M (medium inhibition (“M”=between 25 to 50% of the activity remaining))	H (high inhibition (“H”=less than 25% of the activity remaining))	L (low inhibition (“L”=between 50–75% of the activity remaining))	L (low inhibition (“L”=between 50–75% of the activity remaining))	L (low inhibition (“L”=between 50–75% of the activity remaining))
Cc1ccc(-c2nn(C(C)(C)C)c3ncnc(N)c23)cc1 [PP1]	L (low inhibition (“L”=between 50–75% of the activity remaining))	M (medium inhibition (“M”=between 25 to 50% of the activity remaining))	L (low inhibition (“L”=between 50–75% of the activity remaining))		M (medium inhibition (“M”=between 25 to 50% of the activity remaining))
COC(=O)c1ccc(NCc2cc(O)ccc2O)cc1 [AG-957]	L (low inhibition (“L”=between 50–75% of the activity remaining))	L (low inhibition (“L”=between 50–75% of the activity remaining))	L (low inhibition (“L”=between 50–75% of the activity remaining))	L (low inhibition (“L”=between 50–75% of the activity remaining))	
Erbstatin analog	L (low inhibition (“L”=between 50–75% of the activity remaining))	L (low inhibition (“L”=between 50–75% of the activity remaining))			
Cc1cc2ncc(-c3ccc(O)c(O)c3)nc2cc1C [AG-1433]	H (high inhibition (“H”=less than 25% of the activity remaining))	H (high inhibition (“H”=less than 25% of the activity remaining))	H (high inhibition (“H”=less than 25% of the activity remaining))	H (high inhibition (“H”=less than 25% of the activity remaining))	H (high inhibition (“H”=less than 25% of the activity remaining))
COc1cc2ncnc(Nc3ccc(Cl)cc3F)c2cc1OC [VEGFR inhibitor]	M (medium inhibition (“M”=between 25 to 50% of the activity remaining))	L (low inhibition (“L”=between 50–75% of the activity remaining))		L (low inhibition (“L”=between 50–75% of the activity remaining))	L (low inhibition (“L”=between 50–75% of the activity remaining))
CC(C)(C)c1cc(C=C(C#N)C#N)cc(Br)c1O [AG-1024]	L (low inhibition (“L”=between 50–75% of the activity remaining))	L (low inhibition (“L”=between 50–75% of the activity remaining))	L (low inhibition (“L”=between 50–75% of the activity remaining))	L (low inhibition (“L”=between 50–75% of the activity remaining))	M (medium inhibition (“M”=between 25 to 50% of the activity remaining))
COc1c(C=O)c(O)cc2c1C(=O)c1ccccc1C2=O [Damnacanthal]	H (high inhibition (“H”=less than 25% of the activity remaining))	H (high inhibition (“H”=less than 25% of the activity remaining))	H (high inhibition (“H”=less than 25% of the activity remaining))	H (high inhibition (“H”=less than 25% of the activity remaining))	H (high inhibition (“H”=less than 25% of the activity remaining))
